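Each compound was tested at five concentrations against cells in 96-well plates for 48 hours. GI50 marks 50% less growth. TGI marks complete inhibition of growth.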
Experiments:
Assay in all cases: NCI anticancer screen, dose series, 48 h
HCC-2998 colon = tested on: HCC-2998 colon
A498 renal = tested on: A498 renal
OVCAR-3 ovarian = tested on: OVCAR-3 ovarian
HT29 colon = tested on: HT29 colon
SNB-75 CNS = tested on: SNB-75 CNS
SK-MEL-2 melanoma = tested on: SK-MEL-2 melanoma
CCRF-CEM leukemia = tested on: CCRF-CEM leukemia
SK-OV-3 ovarian = tested on: SK-OV-3 ovarian
SF-539 CNS = tested on: SF-539 CNS
SK-MEL-28 melanoma = tested on: SK-MEL-28 melanoma
SW-620 colon = tested on: SW-620 colon
NCI-H522 lung = tested on: NCI-H522 lung
MALME-3M melanoma = tested on: MALME-3M melanoma
MOLT-4 leukemia = tested on: MOLT-4 leukemia
NCI-H226 lung = tested on: NCI-H226 lung

Compound | TGI (HCC-2998 colon) [µM] | TGI (A498 renal) [µM] | TGI (OVCAR-3 ovarian) [µM] | TGI (HT29 colon) [µM] | TGI (SNB-75 CNS) [µM] | TGI (SK-MEL-2 melanoma) [µM] | TGI (CCRF-CEM leukemia) [µM] | TGI (SK-OV-3 ovarian) [µM] | TGI (SF-539 CNS) [µM] | TGI (SK-MEL-28 melanoma) [µM] | TGI (SW-620 colon) [µM] | TGI (NCI-H522 lung) [µM] | TGI (MALME-3M melanoma) [µM] | TGI (MOLT-4 leukemia) [µM] | TGI (NCI-H226 lung) [µM] | GI50 (SNB-75 CNS) [µM]
C[Si](C)(C)/C=C/CN1C(=O)CCC1=O | > 100 | > 100 | > 100 | > 100 | > 100 | > 100 | > 100 | > 100 | > 100 | > 100 | > 100 | > 100 | > 100 | – | – | –
COc1cc2c(cc1OC)[C@H]1C(COC(=O)Nc3ccccc3)CN1CC2 (stereo partly drawn) | > 100 | > 100 | > 100 | > 100 | 79.3 | > 100 | > 100 | > 100 | > 100 | > 100 | > 100 | > 100 | > 100 | > 100 | – | –
CCOC(OC1=C(C#N)CCCC1)C(CC)[Se]c1ccccc1[N+](=O)[O-] (stereo not drawn) | 45.9 | > 100 | 95.4 | 31.4 | 49.5 | > 100 | 49.6 | > 100 | 37.8 | 89.9 | – | 30.9 | > 100 | 71.2 | 43 | –
COC(=O)C(C#N)C1NC(=O)c2ccccc21 (stereo not drawn) | > 100 | > 100 | > 100 | > 100 | > 100 | – | > 100 | > 100 | > 100 | > 100 | > 100 | > 100 | > 100 | > 100 | > 100 | –
Cn1c(=O)[nH]c2c(c1=O)C(=O)CN2 | > 100 | – | – | – | > 100 | > 100 | > 100 | > 100 | > 100 | > 100 | > 100 | – | > 100 | > 100 | > 100 | –
COc1cc2cnc3c4cc(OC)c(OC(C)C)cc4ccc3c2cc1OC | > 100 | – | > 100 | > 100 | > 100 | > 100 | > 100 | > 100 | > 100 | > 100 | > 100 | > 100 | > 100 | > 100 | > 100 | –
CC(O)C1OC(n2ccc(=O)[nH]c2=O)CC1n1cncn1 (stereo not drawn) | > 100 | > 100 | > 100 | > 100 | > 100 | > 100 | > 100 | > 100 | – | > 100 | > 100 | > 100 | > 100 | > 100 | > 100 | > 100
CN(C(=O)c1ccccc1)c1ccc2c(c1)C(=O)c1ccccc1C2=O | > 100 | – | > 100 | > 100 | – | > 100 | > 100 | > 100 | – | > 100 | > 100 | > 100 | > 100 | > 100 | > 100 | –
CC(C)=CCOc1ccc(-c2coc3cc4c(c(O)c3c2=O)C=CC(C)(C)O4)cc1 | > 100 | 98.7 | > 100 | > 100 | – | – | > 100 | – | – | > 100 | > 100 | 38.9 | – | > 100 | > 100 | –
CCOC(=O)c1ccn2c(c1)c(C#N)c1nc3ccccc3nc12 | > 100 | > 100 | > 100 | – | > 100 | > 100 | 68.4 | > 100 | > 100 | > 100 | > 100 | > 100 | > 100 | 50.6 | – | –
N#CCCN(CCC#N)c1ccc(/C=C(/NC(=O)Nc2ccccc2Cl)NC(=O)c2cc([N+](=O)[O-])ccc2Cl)cc1 | > 100 | – | > 100 | – | – | > 100 | > 100 | > 100 | > 100 | > 100 | > 100 | > 100 | > 100 | > 100 | > 100 | –
COC(=O)C(=O)C(C(C)=O)C(=O)C(=O)Nc1ccc(C)cc1C (stereo not drawn) | > 100 | > 100 | – | > 100 | > 100 | > 100 | > 100 | > 100 | > 100 | > 100 | > 100 | > 100 | – | > 100 | > 100 | –
CCCCCC(/C=C/c1ncccc1OCCCCCC(=O)O)=N\NC1=NCCN1 | > 100 | – | > 100 | > 100 | > 100 | > 100 | > 100 | > 100 | > 100 | > 100 | > 100 | > 100 | > 100 | > 100 | > 100 | –
CC(=O)OCC1OC(n2c(O)c(N=NC(N)=S)c3ccc([N+](=O)[O-])cc32)C(OC(C)=O)C1OC(C)=O (stereo not drawn) | 65.6 | – | 63.9 | 96.2 | 82.8 | 47.2 | 64.8 | > 100 | 70.2 | > 100 | > 100 | 31.4 | > 100 | 54.9 | 84.7 | –

Source: PubChem BioAssay (NCI)
